Experimental data published in patent publication US8097422B2, “Kir channel modulators” (Salk Institute for Biological Studies, priority 2007, dated 2012).
Read-outs that look alike come from different tables or passages of the source.

Key:
[1] = test system: Kir3.1/3.4 and Kir3.1/3.2 channels; conditions: cited from earlier work
Kir1 and Kir2 channels = conditions: cited from earlier work
Kir3 channels = target: T1, Kir3 channels (Mus musculus, UniProt P48542); experiment: patch-clamp determination of ion transport activity: activation of Kir3 channels; assay type: cell-based; conditions: for Emax at 100000 µM: read-out: Maximal activation of Kir3 channels relative to that of 100 mM (±)MPD
T1 construct: other: patch-clamp; other: 100 mM
T1 sequence (P48542 1-425): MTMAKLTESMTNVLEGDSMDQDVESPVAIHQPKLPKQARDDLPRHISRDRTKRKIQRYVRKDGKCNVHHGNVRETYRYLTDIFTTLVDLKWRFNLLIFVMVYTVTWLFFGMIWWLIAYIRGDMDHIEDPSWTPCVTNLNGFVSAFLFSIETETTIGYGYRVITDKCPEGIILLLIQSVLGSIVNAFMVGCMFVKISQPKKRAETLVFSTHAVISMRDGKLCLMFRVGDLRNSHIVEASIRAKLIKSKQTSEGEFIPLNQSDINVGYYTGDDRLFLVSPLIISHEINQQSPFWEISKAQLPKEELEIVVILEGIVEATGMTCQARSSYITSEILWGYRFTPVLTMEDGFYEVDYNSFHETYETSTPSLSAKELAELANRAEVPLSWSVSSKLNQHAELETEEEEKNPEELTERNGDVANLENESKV
Text: It has been determined that inwardly rectifying potassium (Kir) channels are regulated directly by small molecule alcohol compounds. Three-dimensional crystallographic analysis of Kir channels has elucidated atomic details of binding pocket interactions with 2-methyl-2,4-pentanediol (MPD). MPD inhibits Kir2 channel activity and activates Kir3 channel activity. Amino acid substitutions in this hydrophobic pocket of the channel protein may alter the response to MPD. As determined by patch-clamp determinations of ion transport activity, a racemic mixture of 2-methyl-2,4-pentanediol, (±)MPD, activates Kir3 channels with an EC50 of >200 mM and inhibits Kir2 homotetramer channels with an IC50 of ˜200 mM. […] Bupivacaine inhibits Kir3.1/3.4 and Kir3.1/3.2 channels with an IC50 of ˜20-40 micromolar.
The following also were observed. Maximal activation of Kir3 channels by 100 mM (±)MPD is 280% that of 100 mM EtOH. Maximal activation of Kir3 channels by 100 mM R(−)2 methyl-2,4-pentanediol is 60% that of 100 mM (±)MPD. Maximal activation of Kir3 channels by 100 mM 3-methyl-1,3,5-pentanetriol is 70% that of 100 mM (±)MPD. Maximal activation of Kir3 channels by 100 mM 2,5-dimethyl-1,2,6-hexanetriol is 70% that of 100 mM (±)MPD. Maximal activation of Kir3 channels by 100 mM (±) 2,4-pentanediol is 50% that of 100 mM (±)MPD.

[2] = target: T2, GIRK2 channel (wild type) (Mus musculus, UniProt P48542); experiment: whole-cell patch clamp, HEK293T cells transfected with GIRK2; assay type: cell-based; conditions: 1 mM Ba++, MPD doses up to 300 mM
T2 construct: expressed in transfected cells; host or cells: HEK293T
T2 sequence (P48542 1-425): T1 sequence (P48542 1-425)
Text: (§1) GIRK2c, GIRK4, IRK1, M2R and m-Phosducin were subcloned into PCDNA3.1 vector (Invitrogen). Point mutations were introduced by Quickchange site directed mutagenesis kit (Stratagene). The GIRK2 PIP mutant was generated by overlap-PCR method. Briefly, amino acid 216-NLRKSHL-222 (SEQ ID NO: 25) of IRK1 was swapped into 228-DLRNSHL-234 (SEQ ID NO: 26) of GIRK2, in the region designated βC-βD loop in the crystal structure. Mutations were confirmed by automated DNA sequencing methods.
(§2) HEK 293T cells were cultured in DMEM supplemented with 10% FBS, and 1× Glutamax (Invitrogen) in a humidified 37° incubator with 5% CO2. Cells were plated in a 12 well dish, and were transiently transfected using Lipofectamine 2000 (Invitrogen). After 12-24 hrs, cells were re-plated to 12-mm glass coverslips coated with poly-D-Lysine (20 microgram/ml).
(§3) HEK293 cells were transfected with 0.2 micrograms of channel cDNA. The cells were co-transfected with 0.04 micrograms of eYFP cDNA to identify transfected cells. 0.8 micrograms of Muscarinic Receptor 2 (M2R) was also co-transfected for experiments with Carbachol. For experiments with and without m-phosducin, 0.8 ug of m-phosducin cDNA was used versus a PCDNA3.1 vector control.
(§4) Whole-cell patch clamp recordings were performed 24-72 hrs after transfection. Borosilicate glass electrodes (Warner Instruments) of […] filled with intracellular solution (130 mM KCl, 20 mM NaCl, 5 mM EGTA, 2.56 mM K2ATP, 5.46 mM MgCl2, 0.30 mM Li2GTP, and 10 mM HEPES (pH 7.4)) was used. Membrane currents were recorded using Axopatch 200B (Axon Instruments) amplifier, adjusted electronically for cell capacitance and series resistance (80-100%), filtered at 1 kHz with an 8-pole Bessel filter and digitized at 5 kHz with a Digidata 1200 interface (Axon Instruments). The cells rapidly perfused with a 20 mM K^+ (20K) solution (20 mM KCl, 140 mM NaCl, 0.5 mM CaCl2, 2 mM MgCl2 and 10 mM HEPES (pH7.4)). Alcohols, 5 μM Carbachol, and 1 mM BaCl2 (diluted in 20K solution) were applied from outside the cell with the rapid perfusion system (Warner Instruments). Whole-cell currents were measured using a ramp protocol that holds at −40 mV, steps to −100 mV then ramps to +50 mV and repeats every 2 seconds. Current-voltage relationships also were obtained from the ramp protocol. This protocol was used to measure the inwardly rectifying currents at −100 mV and to ensure stability of recording by monitoring a reversal potential and inward rectification. Current density was measured by dividing inward current at −100 mV by membrane capacitance that was compensated during the recording. Basal currents were measured as the Ba^++ blocked inward currents at −100 mV. Alcohol and Carbachol modulated currents were measured by averaging two consecutive current readings upon reaching steady state, and subtracting the averaged basal current before and after the application of modulator. Pooled data are presented as Mean±SEM and evaluated for statistical significance by a 1-way ANOVA, followed by Bonferroni's multiple comparison post-hoc test.

IRK1 channel = target: T3, IRK1 channel (Mus musculus, UniProt P35561); experiment: whole-cell patch clamp, HEK293T cells transfected with IRK1; assay type: cell-based; conditions: 1 mM Ba++
T3 construct: expressed in transfected cells; host or cells: HEK293T
T3 sequence (P35561 1-428): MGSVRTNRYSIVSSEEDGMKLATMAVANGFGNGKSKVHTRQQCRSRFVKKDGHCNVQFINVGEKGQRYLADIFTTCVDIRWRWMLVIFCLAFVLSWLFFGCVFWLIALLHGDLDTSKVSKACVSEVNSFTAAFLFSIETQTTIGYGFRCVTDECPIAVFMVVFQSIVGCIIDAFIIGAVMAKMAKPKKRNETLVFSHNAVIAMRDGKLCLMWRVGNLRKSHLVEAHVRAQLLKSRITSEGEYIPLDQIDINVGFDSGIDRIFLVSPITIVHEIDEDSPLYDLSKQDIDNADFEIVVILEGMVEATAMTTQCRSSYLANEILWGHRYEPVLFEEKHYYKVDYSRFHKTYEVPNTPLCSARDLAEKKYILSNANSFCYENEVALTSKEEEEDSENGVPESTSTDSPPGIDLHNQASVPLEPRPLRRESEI
Protocol: Using whole-cell patch clamp, technique in HEK293T cells transfected with IRK1 or GIRK2 channels, it was determined that MPD does in fact modulate these channels. Addition of 100 mM MPD inhibits the inward currents of the IRK1 channel, without changing the reversal potential or altering inward rectification (FIG. 1e).
as §1, §2, §3, §4

SMILES: CCCCN1CCCCC1C(=O)Nc1c(C)cccc1C (stereo not drawn) [Bupivacaine]
- IC50 ([1]; certain Kir3 channels, read-out: IC50 for inhibition of certain Kir3 channels): ~20 µM
- IC50 ([1]; reference [31], read-out: IC50 for inhibition of Kir3.1/3.4 and Kir3.1/3.2 channels): 20 to 40 µM
- sensitivity of Kir1 and Kir2 channels to bupivacaine (Kir1 and Kir2 channels): insensitive

SMILES: C[C@@H](O)CC(C)(C)O [R(−)2 methyl-2,4-pentanediol]
- Maximal activation of Kir3 channels relative to that of 100 mM (±)MPD (Kir3 channels; 100 mM): 60%

SMILES: [Ba+2].[Cl-].[Cl-] [Ba^++, BaCl2]
- block of MPD-induced GIRK2 currents [2]: completely blocked
- block of IRK1 inwardly rectifying current (IRK1 channel): blocked completely

SMILES: CC(O)CC(C)O (racemic) [(±) 2,4-pentanediol, 2,4-pentanediol]
- Emax at 100000 µM (Kir3 channels): 50%

SMILES: CC(O)(CCO)CCO [3-methyl-1,3,5-pentanetriol]
- Emax at 100000 µM (Kir3 channels): 70%

SMILES: CC(CO)CCC(C)(O)CO (stereo not drawn) [2,5-dimethyl-1,2,6-hexanetriol]
- Emax at 100000 µM (Kir3 channels): 70%
